In US20240398837A1, “Combination Therapy For Prostate Cancer” (Janssen Pharmaceutica NV, priority 2017, published 2024):
Read-outs that look alike come from different tables or passages of the source.

Assays:
[1] = test system: human VCaP prostate tumors; conditions: for TGI (%): day 58, vs. vehicle control; for TGI (%) / Tumor on day: p.o. Qd x 35; for ILS (%): increased life span, compared with group 1 (vehicle); for MLS: median lifespan, euthanized when tumor volume reached 1500 mm^3; for Tumor on day: tumor volume, Mean ± SEM, day 58, N=10/group
[2] = biological target: PARP-1 (Homo sapiens, UniProt P09874); conditions: in words; cited from earlier work
[3] = test system: CYP1A2; conditions: preclinical data; cited from earlier work
[4] = test system: cytochrome P450 (CYP) enzymes; conditions: in words; cited from earlier work
[5] = test system: BRCA-1-deficient breast, BRCA-2-deficient pancreatic and ovarian cancers; conditions: mice; cited from earlier work
[6] = test system: cancer cell lines that have been silenced for BRCA-1 or BRCA-2 genes, or that have BRCA-1 and BRCA-2 mutations; conditions: due to cell cycle arrest, followed by apoptosis; cited from earlier work
[7] = biological target: PARP-2 (Homo sapiens, UniProt Q9UGN5); conditions: in words; cited from earlier work
[8] = cited from earlier work
[9] = biological target: P-glycoprotein (Homo sapiens, UniProt P08183); conditions: cited from earlier work
[10] = test system: neurological function; conditions: conscious mice; cited from earlier work
[11] = anesthetized dogs; cited from earlier work
[12] = test system: androgens; conditions: cited from earlier work
[13] = test system: mCRPC; conditions: cited from earlier work
[14] = added to castration, relative to castration alone

PARP-1, sequence (P09874 whole entry, species assumed): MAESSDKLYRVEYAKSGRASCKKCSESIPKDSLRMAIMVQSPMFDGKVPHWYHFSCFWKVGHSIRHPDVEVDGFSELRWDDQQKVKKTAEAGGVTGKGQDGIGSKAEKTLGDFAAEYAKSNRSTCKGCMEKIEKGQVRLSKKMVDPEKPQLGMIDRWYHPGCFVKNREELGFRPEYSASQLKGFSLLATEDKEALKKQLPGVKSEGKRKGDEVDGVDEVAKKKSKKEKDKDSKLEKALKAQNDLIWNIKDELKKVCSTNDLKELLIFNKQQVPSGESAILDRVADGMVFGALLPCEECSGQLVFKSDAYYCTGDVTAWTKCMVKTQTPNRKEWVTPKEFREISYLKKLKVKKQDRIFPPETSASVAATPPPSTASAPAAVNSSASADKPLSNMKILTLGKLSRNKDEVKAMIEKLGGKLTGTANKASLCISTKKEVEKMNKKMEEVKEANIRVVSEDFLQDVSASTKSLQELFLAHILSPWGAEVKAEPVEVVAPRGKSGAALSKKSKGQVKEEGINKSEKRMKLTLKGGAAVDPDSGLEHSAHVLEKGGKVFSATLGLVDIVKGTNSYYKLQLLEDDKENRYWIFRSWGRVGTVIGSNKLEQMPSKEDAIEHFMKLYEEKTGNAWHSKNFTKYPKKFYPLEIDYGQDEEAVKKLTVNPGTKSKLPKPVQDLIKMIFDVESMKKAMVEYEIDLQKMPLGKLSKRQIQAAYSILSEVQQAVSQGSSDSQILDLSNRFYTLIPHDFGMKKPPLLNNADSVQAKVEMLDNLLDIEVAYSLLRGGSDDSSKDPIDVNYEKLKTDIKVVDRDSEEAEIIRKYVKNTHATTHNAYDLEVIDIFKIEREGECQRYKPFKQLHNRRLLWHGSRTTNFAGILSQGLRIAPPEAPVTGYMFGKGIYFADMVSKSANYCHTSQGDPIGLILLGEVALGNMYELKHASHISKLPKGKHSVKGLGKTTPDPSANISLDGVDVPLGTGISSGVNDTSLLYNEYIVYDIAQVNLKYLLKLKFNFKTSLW
PARP-2, sequence (Q9UGN5 whole entry, species assumed): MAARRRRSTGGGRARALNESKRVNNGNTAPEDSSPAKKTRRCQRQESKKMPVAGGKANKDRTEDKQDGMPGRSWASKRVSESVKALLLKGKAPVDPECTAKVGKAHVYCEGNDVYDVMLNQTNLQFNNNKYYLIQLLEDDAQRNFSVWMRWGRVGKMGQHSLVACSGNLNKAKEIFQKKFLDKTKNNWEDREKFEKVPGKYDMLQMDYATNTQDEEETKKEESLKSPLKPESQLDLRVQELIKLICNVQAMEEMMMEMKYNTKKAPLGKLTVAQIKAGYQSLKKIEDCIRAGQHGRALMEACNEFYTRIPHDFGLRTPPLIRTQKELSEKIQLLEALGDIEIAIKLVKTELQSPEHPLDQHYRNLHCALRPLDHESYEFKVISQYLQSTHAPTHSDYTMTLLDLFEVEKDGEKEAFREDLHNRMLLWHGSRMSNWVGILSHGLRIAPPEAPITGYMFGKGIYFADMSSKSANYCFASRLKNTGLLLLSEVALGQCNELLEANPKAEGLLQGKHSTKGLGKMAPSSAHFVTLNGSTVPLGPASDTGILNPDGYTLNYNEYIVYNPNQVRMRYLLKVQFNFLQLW
P-glycoprotein, sequence (P08183 whole entry): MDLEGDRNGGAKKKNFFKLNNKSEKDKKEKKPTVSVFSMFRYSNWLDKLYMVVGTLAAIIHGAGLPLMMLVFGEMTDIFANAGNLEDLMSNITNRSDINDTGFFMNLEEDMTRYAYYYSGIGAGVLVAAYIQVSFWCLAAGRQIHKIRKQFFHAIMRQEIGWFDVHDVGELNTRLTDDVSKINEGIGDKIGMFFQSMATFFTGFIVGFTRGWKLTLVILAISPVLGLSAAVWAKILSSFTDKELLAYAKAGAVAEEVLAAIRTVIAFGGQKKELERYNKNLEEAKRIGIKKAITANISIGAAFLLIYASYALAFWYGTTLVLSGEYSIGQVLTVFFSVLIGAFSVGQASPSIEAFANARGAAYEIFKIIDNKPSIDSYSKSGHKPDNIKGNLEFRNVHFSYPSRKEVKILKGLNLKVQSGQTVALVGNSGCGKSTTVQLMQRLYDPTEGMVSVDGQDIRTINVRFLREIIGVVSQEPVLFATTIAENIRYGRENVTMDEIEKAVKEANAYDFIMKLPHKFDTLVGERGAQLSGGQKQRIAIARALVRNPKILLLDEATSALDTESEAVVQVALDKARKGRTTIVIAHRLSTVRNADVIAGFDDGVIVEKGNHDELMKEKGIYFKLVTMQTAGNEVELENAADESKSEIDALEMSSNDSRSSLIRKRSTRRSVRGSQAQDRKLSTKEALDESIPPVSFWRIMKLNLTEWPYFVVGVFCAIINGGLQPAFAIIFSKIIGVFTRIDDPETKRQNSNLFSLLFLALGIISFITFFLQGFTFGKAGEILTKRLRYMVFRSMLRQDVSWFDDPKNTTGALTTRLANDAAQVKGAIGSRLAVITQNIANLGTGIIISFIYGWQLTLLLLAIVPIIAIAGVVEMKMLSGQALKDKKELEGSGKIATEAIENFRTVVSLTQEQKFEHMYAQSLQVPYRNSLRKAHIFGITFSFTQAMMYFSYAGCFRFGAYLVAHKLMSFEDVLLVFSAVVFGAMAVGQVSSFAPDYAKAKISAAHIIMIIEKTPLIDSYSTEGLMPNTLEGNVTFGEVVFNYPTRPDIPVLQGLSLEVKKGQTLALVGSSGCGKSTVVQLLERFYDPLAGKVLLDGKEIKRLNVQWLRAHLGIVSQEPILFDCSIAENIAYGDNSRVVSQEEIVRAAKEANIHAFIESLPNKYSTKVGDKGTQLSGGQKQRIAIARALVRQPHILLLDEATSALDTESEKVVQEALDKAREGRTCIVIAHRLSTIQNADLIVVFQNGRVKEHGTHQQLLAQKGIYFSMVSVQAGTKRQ

C[C@]12CC[C@H](O)CC1=CC[C@@H]1[C@@H]2CC[C@]2(C)C(c3cccnc3)=CC[C@@H]12 [Abiraterone]
TGI (%) [1]: 37.6% | inhibition of tumor growth ([1]; days 37-55, compared with vehicle control): 35%-46% | ILS (%) [1]: 13.1% | MLS [1]: 88 days | Tumor on day [1]: 523 ± 51 mm^3 | increase of MLS ([1]; vs the vehicle control group): 10.5 days

NC(=O)c1cccc2cn(-c3ccc([C@@H]4CCCNC4)cc3)nc12 [Niraparib, 2-[4-[(3S)-piperidin-3-yl]phenyl]indazole-7-carboxamide]
TGI (%) [1]: 20.8% | inhibition of tumor growth ([1]; days 41-55, compared with vehicle control): approximately 25% | MLS / survival benefit ([1]; in words, compared with the vehicle control group): did not increase MLS or provide a significant survival benefit | ILS (%) [1]: −0.6% | MLS [1]: 79 days | Tumor on day [1]: 664 ± 50 mm^3 | activity against PARP-1 [2]: potent activity | potential to induce CYP1A2 enzymes [3]: moderate potential | inhibition or induction of CYP enzymes [4]: not a potent inhibitor or inducer | antitumor activity [5]: has antitumor activity | anti-proliferative activity [6]: demonstrates anti-proliferative activity | activity against PARP-2 [7]: potent activity | metabolism ([8]; in vitro, multiple metabolic enzymes (both CYPs and non-CYPs)): limited metabolism | clearance ([8]; in words): low clearance drug | P-glycoprotein substrate [9]: is a P-glycoprotein substrate | effect on neurological function [10]: no effect | QRS cardiac interval [11]: increased | QTc interval [11]: unaffected | heart rate [11]: increased | mean arterial pressure [11]: increased

CC(=O)O[C@H]1CC[C@@]2(C)C(=CC[C@@H]3[C@@H]2CC[C@]2(C)C(c4cccnc4)=CC[C@@H]32)C1 [abiraterone acetate, 3β-acetoxy-17-(3-pyridyl)androsta-5,16-diene]
reduction of levels of DHEA [12, 14]: 97-98% | reduction of levels of DHT [12, 14]: 85% | reduction of levels of androstenedione [12, 14]: 77-78% | circulating testosterone levels ([12]; after administration of abiraterone acetate, castration gives 20 ng/dL): less than 1 ng/dL

O=C(c1cc(Cc2n[nH]c(=O)c3ccccc23)ccc1F)N1CCN(C(=O)C2CC2)CC1 [olaparib]
responders that were biomarker-positive for anomalies in DNA-repair genes ([13]; 14 of the 16 responding patients): 88% | patients with a response ([13]; all patients, sixteen of 49, 95% CI 20%, 48%): 33% | Overall survival (OS), median ([13]; biomarker-negative group): 7.5 months | Radiographic progression-free survival (rPFS), median ([13]; biomarker-negative group): 2.7 months | patients with a response ([13]; biomarker-negative, 2 of 33): 6% | Overall survival (OS), median ([13]; biomarker-positive group): 13.8 months | Radiographic progression-free survival (rPFS), median ([13]; biomarker-positive group): 9.8 months | patients with a response ([13]; patients with ATM aberrations): 4 of 5 | patients with a response ([13]; patients with BRCA-2 loss): all 7
